For one test, the target named is Cholinesterase (Homo sapiens, UniProt P06276). As to the kind of experiment: AChE and BuChE Inhibition Assay. The following applies: pH 8. Here is the method:
(§1) The reaction mixture was consisted of 100 µL of the total volume.

The target of another test is Acetylcholinesterase (Homo sapiens, UniProt P22303). The experiment in a line: AChE and BuChE Inhibition Assay. The following applies: pH 8. As to the method:
as §1

Chain of Acetylcholinesterase (P22303 whole entry): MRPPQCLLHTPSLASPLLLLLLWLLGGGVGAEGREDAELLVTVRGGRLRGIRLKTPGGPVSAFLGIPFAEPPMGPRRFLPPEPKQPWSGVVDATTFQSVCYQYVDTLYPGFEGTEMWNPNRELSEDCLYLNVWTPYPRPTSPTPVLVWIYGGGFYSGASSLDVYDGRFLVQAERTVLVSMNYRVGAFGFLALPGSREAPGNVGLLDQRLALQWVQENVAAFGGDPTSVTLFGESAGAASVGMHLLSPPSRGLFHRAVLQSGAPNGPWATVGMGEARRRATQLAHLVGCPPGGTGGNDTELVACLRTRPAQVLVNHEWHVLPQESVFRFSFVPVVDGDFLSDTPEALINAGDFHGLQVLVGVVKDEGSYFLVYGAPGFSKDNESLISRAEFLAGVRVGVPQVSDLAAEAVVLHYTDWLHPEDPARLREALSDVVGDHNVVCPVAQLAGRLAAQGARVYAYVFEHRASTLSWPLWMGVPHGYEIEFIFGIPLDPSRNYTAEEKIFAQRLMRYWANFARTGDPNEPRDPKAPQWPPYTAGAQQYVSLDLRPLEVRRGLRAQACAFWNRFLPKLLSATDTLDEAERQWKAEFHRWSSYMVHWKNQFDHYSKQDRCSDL
Chain of Cholinesterase (P06276 whole entry): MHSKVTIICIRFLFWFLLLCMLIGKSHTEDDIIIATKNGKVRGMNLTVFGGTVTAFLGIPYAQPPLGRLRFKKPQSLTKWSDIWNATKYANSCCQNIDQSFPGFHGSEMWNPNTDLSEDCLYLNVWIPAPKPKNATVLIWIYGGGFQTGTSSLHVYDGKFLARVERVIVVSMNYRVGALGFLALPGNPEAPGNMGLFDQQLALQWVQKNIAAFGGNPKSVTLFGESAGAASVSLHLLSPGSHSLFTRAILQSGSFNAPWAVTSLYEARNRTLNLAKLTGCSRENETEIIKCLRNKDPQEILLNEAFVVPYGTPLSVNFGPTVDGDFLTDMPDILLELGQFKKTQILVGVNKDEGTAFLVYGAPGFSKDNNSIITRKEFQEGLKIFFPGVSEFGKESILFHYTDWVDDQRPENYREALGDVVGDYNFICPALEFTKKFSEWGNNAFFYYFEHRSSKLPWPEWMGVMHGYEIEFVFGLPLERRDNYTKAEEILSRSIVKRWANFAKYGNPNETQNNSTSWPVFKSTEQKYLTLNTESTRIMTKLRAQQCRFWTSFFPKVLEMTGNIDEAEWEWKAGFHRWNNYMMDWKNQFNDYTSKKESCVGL

For the molecule `CN1CCN(Cc2ccc(NC(=O)c3cc4cc(Cl)ccc4oc3=O)cc2Cl)CC1` [6-Chloro-N-(3-chloro-4-((4-methylpiperazin-1-yl)methyl)phenyl)-2-oxo-2H-chromene-3-carboxamide (9q)], the figures for the half-inhibitory concentration (IC50) on Cholinesterase and at Acetylcholinesterase were 1790 nM and 841 nM, respectively.

For `CCN1CCN(Cc2ccc(NC(=O)c3cc4cc(Cl)ccc4oc3=O)cc2Cl)CC1` [6-Chloro-N-(3-chloro-4-((4-ethylpiperazin-1-yl)methyl)phenyl)-2-oxo-2H-chromene-3-carboxamide (9p)], the IC50 (usually the concentration that inhibits the measured activity by half) against Acetylcholinesterase was 222 nM.

Turning to `COc1cccc2cc(C(=O)Nc3ccc(CN4CCN(C)CC4)c(Cl)c3)c(=O)oc12` [N-(3-chloro-4-((4-methylpiperazin-1-yl)methyl)phenyl)-8-methoxy-2-oxo-2H-chromene-3-carboxamide (9b)], the values for the IC50 on Cholinesterase and on Acetylcholinesterase were 1770 nM and 1220 nM, respectively.

At Acetylcholinesterase, `CCN1CCN(Cc2ccc(NC(=O)c3cc4cccc(OC)c4oc3=O)cc2Cl)CC1` [N-(3-chloro-4-((4-ethylpiperazin-1-yl)methyl)phenyl)-8-methoxy-2-oxo-2H-chromene-3-carboxamide (9a)] yielded an IC50 of 195 nM.

On to `CCN1CCN(Cc2ccc(NC(=O)c3cc4ccccc4oc3=O)cc2Cl)CC1` [N-(3-chloro-4-((4-ethylpiperazin-1-yl)methyl)phenyl)-2-oxo-2H-chromene-3-carboxamide (9l)], for which the IC50 at Cholinesterase is 1590 nM; against Acetylcholinesterase it was 1300 nM.

In turn, `COc1ccc2cc(C(=O)Nc3ccc(CN4CCN(C)CC4)c(C(F)(F)F)c3)c(=O)oc2c1` [7-Methoxy-N-(4-((4-methylpiperazin-1-yl)methyl)-3-(trifluoromethyl)phenyl)-2-oxo-2H-chromene-3-carboxamide (9j)] showed an IC50 against Acetylcholinesterase of 591 nM.

`CCN1CCN(Cc2ccc(NC(=O)c3cc4cc(Br)ccc4oc3=O)cc2Cl)CC1` [6-Bromo-N-(3-chloro-4-((4-ethylpiperazin-1-yl)methyl)phenyl)-2-oxo-2H-chromene-3-carboxamide (9t)] gave a 50% inhibitory concentration (IC50) against Acetylcholinesterase of 120 nM.

In turn, `CN1CCN(Cc2ccc(NC(=O)c3cc4ccccc4oc3=O)cc2C(F)(F)F)CC1` [N-(4-((4-methylpiperazin-1-yl)methyl)-3-(trifluoromethyl)phenyl)-2-oxo-2H-chromene-3-carboxamide (9o)] displayed an IC50 against Acetylcholinesterase of 618 nM.

Consider `CN1CCN(Cc2ccc(NC(=O)c3cc4cc(Br)ccc4oc3=O)cc2Cl)CC1` [6-Bromo-N-(3-chloro-4-((4-methylpiperazin-1-yl)methyl)phenyl)-2-oxo-2H-chromene-3-carboxamide (9u)], for which the concentration for half-maximal inhibition (IC50) was found to be 1890 nM against Cholinesterase and 330 nM at Acetylcholinesterase.

On to `CN1CCN(Cc2ccc(NC(=O)c3cc4cc([N+](=O)[O-])ccc4oc3=O)cc2Cl)CC1` [N-(3-chloro-4-((4-methylpiperazin-1-yl)methyl)phenyl)-6-nitro-2-oxo-2H-chromene-3-carboxamide (9y)], for which the IC50 at Cholinesterase came to 1880 nM; on Acetylcholinesterase, 807 nM.

Molecule `CCN1CCN(Cc2ccc(NC(=O)c3cc4ccc(OC)cc4oc3=O)cc2Cl)CC1` [N-(3-chloro-4-((4-ethylpiperazin-1-yl)methyl)phenyl)-7-methoxy-2-oxo-2H-chromene-3-carboxamide (9f)] returned a 50% inhibitory concentration (IC50) against Acetylcholinesterase of 122 nM.

For `CN1CCN(Cc2ccc(NC(=O)c3cc4ccccc4oc3=O)cc2Cl)CC1` [N-(3-chloro-4-((4-methylpiperazin-1-yl)methyl)phenyl)-2-oxo-2H-chromene-3-carboxamide (9k)], the IC50 against Cholinesterase was 1970 nM; at Acetylcholinesterase, 1300 nM.

`COc1cccc2cc(C(=O)Nc3ccc(CN4CCN(C)CC4)c(C(F)(F)F)c3)c(=O)oc12` [8-Methoxy-N-(4-((4-methylpiperazin-1-yl)methyl)-3-(trifluoromethyl)phenyl)-2-oxo-2H-chromene-3-carboxamide (9d)] showed an IC50 on Acetylcholinesterase of 1450 nM.

Take `COc1ccc2cc(C(=O)Nc3ccc(CN4CCN(C)CC4)c(Cl)c3)c(=O)oc2c1` [N-(3-chloro-4-((4-methylpiperazin-1-yl)methyl)phenyl)-7-methoxy-2-oxo-2H-chromene-3-carboxamide (9g)]: the values for the concentration for half-maximal inhibition (IC50) at Cholinesterase and against Acetylcholinesterase were 1680 nM and 1540 nM, respectively.

`CCN1CCN(Cc2ccc(NC(=O)c3cc4cc([N+](=O)[O-])ccc4oc3=O)cc2Cl)CC1` [N-(3-chloro-4-((4-ethylpiperazin-1-yl)methyl)phenyl)-6-nitro-2-oxo-2H-chromene-3-carboxamide (9x)] came in with a half-inhibitory concentration (IC50) on Acetylcholinesterase of 34 nM.

These data come from BindingDB's records for doi:10.1016/j.bioorg.2016.07.013 (Shenyang Pharmaceutical University, 2016).
